# Like-named read-outs stand apart in the source and are kept apart here.
# How the values were obtained:
# apo(a) [1] = assay: Apo(a) synthesis by cultured cynomolgus (simian) hepatocytes, ELISA of medium; assay type: cell-based, cynomolgus monkey; settings: culture period 48 h to 72 h
# apo B-100 [2] = assay: Apo B-100 synthesis by cultured cynomolgus (simian) hepatocytes, ELISA of medium; assay type: cell-based, cynomolgus monkey; settings: culture period 48 h to 72 h
# apo A-I [3] = assay: Apo A-I synthesis by cultured cynomolgus (simian) hepatocytes, ELISA of medium; assay type: cell-based, cynomolgus monkey; settings: culture period 48 h to 72 h
# apo A-I mRNA [4] = assay: Apo A-I mRNA levels in cynomolgus hepatocytes, RNA hybridization; assay type: cell-based, cynomolgus monkey; settings: 100 μM, cultured 48 h
# Protocol: (§1) Total RNA was isolated from cynomolgus hepatocytes, cultured for 48 h in the presence or absence of the compounds, by the method of Chomczynski & Sacchi (33). After washing the RNA pellets with 70% (v/v) ethanol, RNA samples were dissolved in water. The RNA concentration in each sample was determined spectrophotometrically, assuming that one A260 unit corresponds with 40 μg RNA/mL. Equal amounts of total RNA (10 μg) from different incubations were fractionated by, elcctrophoresis in a 0.8% (w/v) agarose gel containing 0.27 M formaldehyde, and transferred to Hybond-N+ (Amershamn) in accordance with the manufacturer's instructions and UV cross-linked. Probes, labelling conditions and hybridization were performed as described previously in detail (25).
# (§2) Apo(a) mRNAs were detected using a kringle IV synthetic double-stranded probe of 75 nucleotides with the sense sequence: GGGAATTCGAACCTGCCAAGCTTGGTCATCTATGACACCACACTCGCATAGTCGGACCCC AGAATAAAGCTTGGG, based on the sequence published by McLean et al (34). This probe was labelled by the random primer method according to Megaprime™ DNA labelling systems (Amersham). After hybridization, the blots were washed twice with 2×SSC/1% SDS (1×SSC=0.15 mol/L NaCl/0.015 mol/L sodium citrate, pH 7.0) and twice with 1×SSC/1% SDS for 30 min at 65° C. The blots were exposed to a Fuji imaging plate type BAS-MP for 1 to 24 h. The relative amounts of mRNA were quantified using a phospho-imager (Fuji Fujix BAS 1000) and the computer programs BAS-reader version 2.8 and TINA version 2.08 c.
# (§3) Data shown in table 2 are obtained from measurements using RNA isolated from hepatocytes cultured for 48 h with or without the compounds.
# apo(a) mRNA [5] = assay: Apo(a) mRNA levels in cynomolgus hepatocytes, RNA hybridization; assay type: cell-based, cynomolgus monkey; settings: 100 μM, cultured 48 h
# Protocol: as §1, §2, §3
# apo B-100 [6] = assay: Apo B-100 synthesis by cultured human hepatocytes, ELISA of medium; assay type: cell-based; settings: culture period 48 h to 72 h
# apo A-I [7] = assay: Apo A-I synthesis by cultured human hepatocytes, ELISA of medium; assay type: cell-based; settings: culture period 48 h to 72 h
# apo A-I mRNA [8] = assay: Apo A-I mRNA levels in human hepatocytes, RNA hybridization; assay type: cell-based; settings: 100 μM, cultured 48 h
# apo(a) mRNA [9] = assay: Apo(a) mRNA levels in human hepatocytes, RNA hybridization; assay type: cell-based; settings: 100 μM, cultured 48 h
# Protocol: as §1, §2, §3
# apo(a) [10] = assay: Apo(a) synthesis by cultured human hepatocytes, ELISA of medium; assay type: cell-based; settings: culture period 48 h to 72 h
# lp(a) = settings: cited from earlier work
compound,measurement,setting,value
"COc1cc([C@@H]2OC[C@H](c3cc(OC)c(OC)c(OC)c3)O2)cc(OC)c1OC (relative stereo) [Cisdioxolane, Cis-2,4-bis(3,4,5-trimethoxyphenyl)dioxolane, reference compound]",Apo(a) synthesis,apo(a) [1]; 100 μM,83 ± 2 (3) % of control
same,Apo B-100 synthesis,apo B-100 [2]; 100 μM,99 ± 21 (3) % of control
same,Apo A-I synthesis,apo A-I [3]; 100 μM,229 ± 79 (2) % of control
"COc1cc([C@H]2CC[C@H](c3cc(OC)c(OC)c(OC)c3)O2)cc(OC)c1OC (relative stereo) [L-652,731, Trans-2,5-bis(3,4,5-trimethoxyphenyl)tetrahydrofuran, reference compound]",Apo(a) synthesis,apo(a) [1]; 100 μM,66 ± 8 (2) % of control
same,Apo B-100 synthesis,apo B-100 [2]; 100 μM,76 ± 35 (2) % of control
same,Apo A-I synthesis,apo A-I [3]; 100 μM,134 ± 1 (2) % of control
"CCCCCCCCCCCCCCCCCCNC(=O)OC[C@@H]1CC[C@H](COP(=O)([O-])OCC[n+]2cccc3ccccc32)O1 (relative stereo) [SRI 63-441, O-cis-5-(octadecylcarbamoyloxymethyl)-2-tetrahydrofurylmethyl O-(2-quinolinio-ethyl) hydrogen phosphate, reference compound]",Apo(a) synthesis,apo(a) [1]; 100 μM,24 ± 1 (2) % of control
same,Apo B-100 synthesis,apo B-100 [2]; 100 μM,142 ± 32 (2) % of control
same,Apo A-I synthesis,apo A-I [3]; 100 μM,166 ± 6 (2) % of control
"COc1cc([C@@H]2OC[C@@H](c3cc(OC)c(OC)c(OC)c3)O2)cc(OC)c1OC (relative stereo) [Transdioxolane, Trans-2,4-bis(3,4,5-trimethoxyphenyl)dioxolane, reference compound]",Apo(a) synthesis,apo(a) [1]; 30 μM,103 ± 9 (3) % of control
same,Apo(a) synthesis,apo(a) [1]; 100 μM,60 ± 12 (3) % of control
same,Apo B-100 synthesis,apo B-100 [2]; 30 μM,117 ± 23 (3) % of control
same,Apo B-100 synthesis,apo B-100 [2]; 100 μM,105 ± 7 (3) % of control
same,Apo A-I synthesis,apo A-I [3]; 30 μM,116 ± 7 (3) % of control
same,Apo A-I synthesis,apo A-I [3]; 100 μM,157 ± 2 (3) % of control
Cc1nnc2n1-c1sccc1C(c1ccccc1)=NC2 [Azepine 1],Apo(a) synthesis,apo(a) [1]; 3 μM,85 ± 5 (2) % of control
same,Apo(a) synthesis,apo(a) [1]; 10 μM,76 ± 19 (6) % of control
same,Apo(a) synthesis,apo(a) [1]; 30 μM,48 ± 28 (6) % of control
same,Apo(a) synthesis,apo(a) [1]; 100 μM,34 ± 32 (6) % of control
same,Apo A-I mRNA levels relative to GAPDH,apo A-I mRNA [4],147 ± 28 (3) % of control
same,Apo A-I mRNA levels relative to actin,apo A-I mRNA [4],328 ± 7 (3) % of control
same,Apo A-I mRNA levels relative to rRNA,apo A-I mRNA [4],229 ± 8 (3) % of control
same,Apo(a) mRNA levels relative to GAPDH,apo(a) mRNA [5],39 ± 4 (3) % of control
same,Apo(a) mRNA levels relative to actin,apo(a) mRNA [5],86 ± 7 (3) % of control
same,Apo(a) mRNA levels relative to rRNA,apo(a) mRNA [5],56 ± 12 (3) % of control
same,Apo B-100 synthesis,apo B-100 [2]; 3 μM,117 ± 10 (2) % of control
same,Apo B-100 synthesis,apo B-100 [2]; 10 μM,113 ± 20 (6) % of control
same,Apo B-100 synthesis,apo B-100 [2]; 30 μM,106 ± 27 (6) % of control
same,Apo B-100 synthesis,apo B-100 [2]; 100 μM,95 ± 23 (6) % of control
same,Apo B-100 synthesis,apo B-100 [6]; 3 μM,83 ± 16 (2) % of control
same,Apo B-100 synthesis,apo B-100 [6]; 10 μM,112 ± 3 (2) % of control
same,Apo B-100 synthesis,apo B-100 [6]; 30 μM,109 ± 8 (2) % of control
same,Apo B-100 synthesis,apo B-100 [6]; 100 μM,114 ± 8 (2) % of control
same,Apo A-I synthesis,apo A-I [7]; 3 μM,164 ± 61 (2) % of control
same,Apo A-I synthesis,apo A-I [7]; 10 μM,283 ± 109 (2) % of control
same,Apo A-I synthesis,apo A-I [7]; 30 μM,622 ± 228 (2) % of control
same,Apo A-I synthesis,apo A-I [7]; 100 μM,721 ± 212 (2) % of control
same,Apo A-I synthesis,apo A-I [3]; 3 μM,152 ± 30 (2) % of control
same,Apo A-I synthesis,apo A-I [3]; 10 μM,185 ± 20 (6) % of control
same,Apo A-I synthesis,apo A-I [3]; 30 μM,225 ± 45 (6) % of control
same,Apo A-I synthesis,apo A-I [3]; 100 μM,367 ± 131 (6) % of control
same,Apo A-I mRNA levels relative to GAPDH,apo A-I mRNA [8],111 (1) % of control
same,Apo A-I mRNA levels relative to actin,apo A-I mRNA [8],203 (1) % of control
same,Apo A-I mRNA levels relative to rRNA,apo A-I mRNA [8],308 (1) % of control
same,Apo(a) mRNA levels relative to GAPDH,apo(a) mRNA [9],24 (1) % of control
same,Apo(a) mRNA levels relative to actin,apo(a) mRNA [9],44 (1) % of control
same,Apo(a) mRNA levels relative to rRNA,apo(a) mRNA [9],67 (1) % of control
same,Apo(a) synthesis,apo(a) [10]; 3 μM,75 (1) % of control
same,Apo(a) synthesis,apo(a) [10]; 10 μM,48 (1) % of control
same,Apo(a) synthesis,apo(a) [10]; 30 μM,24 (1) % of control
same,Apo(a) synthesis,apo(a) [10]; 100 μM,14 (1) % of control
c1ccc(C2=NCc3nncn3-c3sccc32)cc1 [Azepine 2],Apo(a) synthesis,apo(a) [1]; 30 μM,no change
same,Apo A-I synthesis,apo A-I [3]; 30 μM,178 (1) % of control
Cc1nnc2n1-c1ccc(Cl)cc1C(c1ccccc1)=NC2C (stereo not shown) [Azepine 3],Apo(a) synthesis,apo(a) [1]; 100 μM,42 ± 20 (3) % of control
same,Apo B-100 synthesis,apo B-100 [2]; 100 μM,102 ± 32 (2) % of control
same,Apo A-I synthesis,apo A-I [3]; 100 μM,359 ± 74 (3) % of control
Brc1nnc2n1-c1ccccc1C(c1ccccc1)=NC2 [Azepine 4],Apo(a) synthesis,apo(a) [1]; 100 μM,62 ± 22 (2) % of control
same,Apo B-100 synthesis,apo B-100 [2]; 100 μM,95 ± 23 (2) % of control
same,Apo A-I synthesis,apo A-I [3]; 100 μM,390 ± 40 (2) % of control
"CC1C(=O)OC2C(O)C34C5CC(C(C)(C)C)C36C(OC(=O)C6O)OC4(C(=O)O5)C12O (stereo not shown) [BN 52051, Ginkgolide B, reference compound]",Apo(a) synthesis,apo(a) [1]; 100 μM,101 ± 1 (2) % of control
same,Apo B-100 synthesis,apo B-100 [2]; 100 μM,113 ± 34 (2) % of control
same,Apo A-I synthesis,apo A-I [3]; 100 μM,144 ± 34 (2) % of control
O=C(O)c1cccnc1 [nicotinic acid],Reduction of plasma levels of lp(a),lp(a); alone (4 g/day),~38%
same,Reduction of plasma levels of lp(a),lp(a); in combination with neomycine (3 g/day and 2 g/day respectively),~45%

# — patent US6444664B1, “Method for controlling the plasma level of lipoproteins to treat alzheimeris disease” (Nederlandse Organisatie voor Toegepast - Natuurweten …, priority 1997, dated 2002)
